The target of this experiment is Leucine-rich repeat serine/threonine-protein kinase 2 (Homo sapiens, UniProt Q5S007, G2019S). As to the kind of experiment: Inhibition of GST20-tagged truncated human LRRK2 G2019S mutant using fluorescein labeled LRRKtide peptide as substrate by Lantha screen assay.

Consider one compound from ChEMBL document CHEMBL5247684, “Novel C-Linked Isoquinoline Amides as LRRK2 Inhibitors for Treating Parkinson's Disease” (ACS Med Chem Lett, 2023).

Chain of Leucine-rich repeat serine/threonine-protein kinase 2 (Q5S007 whole entry G2019S, the tested form may be a part): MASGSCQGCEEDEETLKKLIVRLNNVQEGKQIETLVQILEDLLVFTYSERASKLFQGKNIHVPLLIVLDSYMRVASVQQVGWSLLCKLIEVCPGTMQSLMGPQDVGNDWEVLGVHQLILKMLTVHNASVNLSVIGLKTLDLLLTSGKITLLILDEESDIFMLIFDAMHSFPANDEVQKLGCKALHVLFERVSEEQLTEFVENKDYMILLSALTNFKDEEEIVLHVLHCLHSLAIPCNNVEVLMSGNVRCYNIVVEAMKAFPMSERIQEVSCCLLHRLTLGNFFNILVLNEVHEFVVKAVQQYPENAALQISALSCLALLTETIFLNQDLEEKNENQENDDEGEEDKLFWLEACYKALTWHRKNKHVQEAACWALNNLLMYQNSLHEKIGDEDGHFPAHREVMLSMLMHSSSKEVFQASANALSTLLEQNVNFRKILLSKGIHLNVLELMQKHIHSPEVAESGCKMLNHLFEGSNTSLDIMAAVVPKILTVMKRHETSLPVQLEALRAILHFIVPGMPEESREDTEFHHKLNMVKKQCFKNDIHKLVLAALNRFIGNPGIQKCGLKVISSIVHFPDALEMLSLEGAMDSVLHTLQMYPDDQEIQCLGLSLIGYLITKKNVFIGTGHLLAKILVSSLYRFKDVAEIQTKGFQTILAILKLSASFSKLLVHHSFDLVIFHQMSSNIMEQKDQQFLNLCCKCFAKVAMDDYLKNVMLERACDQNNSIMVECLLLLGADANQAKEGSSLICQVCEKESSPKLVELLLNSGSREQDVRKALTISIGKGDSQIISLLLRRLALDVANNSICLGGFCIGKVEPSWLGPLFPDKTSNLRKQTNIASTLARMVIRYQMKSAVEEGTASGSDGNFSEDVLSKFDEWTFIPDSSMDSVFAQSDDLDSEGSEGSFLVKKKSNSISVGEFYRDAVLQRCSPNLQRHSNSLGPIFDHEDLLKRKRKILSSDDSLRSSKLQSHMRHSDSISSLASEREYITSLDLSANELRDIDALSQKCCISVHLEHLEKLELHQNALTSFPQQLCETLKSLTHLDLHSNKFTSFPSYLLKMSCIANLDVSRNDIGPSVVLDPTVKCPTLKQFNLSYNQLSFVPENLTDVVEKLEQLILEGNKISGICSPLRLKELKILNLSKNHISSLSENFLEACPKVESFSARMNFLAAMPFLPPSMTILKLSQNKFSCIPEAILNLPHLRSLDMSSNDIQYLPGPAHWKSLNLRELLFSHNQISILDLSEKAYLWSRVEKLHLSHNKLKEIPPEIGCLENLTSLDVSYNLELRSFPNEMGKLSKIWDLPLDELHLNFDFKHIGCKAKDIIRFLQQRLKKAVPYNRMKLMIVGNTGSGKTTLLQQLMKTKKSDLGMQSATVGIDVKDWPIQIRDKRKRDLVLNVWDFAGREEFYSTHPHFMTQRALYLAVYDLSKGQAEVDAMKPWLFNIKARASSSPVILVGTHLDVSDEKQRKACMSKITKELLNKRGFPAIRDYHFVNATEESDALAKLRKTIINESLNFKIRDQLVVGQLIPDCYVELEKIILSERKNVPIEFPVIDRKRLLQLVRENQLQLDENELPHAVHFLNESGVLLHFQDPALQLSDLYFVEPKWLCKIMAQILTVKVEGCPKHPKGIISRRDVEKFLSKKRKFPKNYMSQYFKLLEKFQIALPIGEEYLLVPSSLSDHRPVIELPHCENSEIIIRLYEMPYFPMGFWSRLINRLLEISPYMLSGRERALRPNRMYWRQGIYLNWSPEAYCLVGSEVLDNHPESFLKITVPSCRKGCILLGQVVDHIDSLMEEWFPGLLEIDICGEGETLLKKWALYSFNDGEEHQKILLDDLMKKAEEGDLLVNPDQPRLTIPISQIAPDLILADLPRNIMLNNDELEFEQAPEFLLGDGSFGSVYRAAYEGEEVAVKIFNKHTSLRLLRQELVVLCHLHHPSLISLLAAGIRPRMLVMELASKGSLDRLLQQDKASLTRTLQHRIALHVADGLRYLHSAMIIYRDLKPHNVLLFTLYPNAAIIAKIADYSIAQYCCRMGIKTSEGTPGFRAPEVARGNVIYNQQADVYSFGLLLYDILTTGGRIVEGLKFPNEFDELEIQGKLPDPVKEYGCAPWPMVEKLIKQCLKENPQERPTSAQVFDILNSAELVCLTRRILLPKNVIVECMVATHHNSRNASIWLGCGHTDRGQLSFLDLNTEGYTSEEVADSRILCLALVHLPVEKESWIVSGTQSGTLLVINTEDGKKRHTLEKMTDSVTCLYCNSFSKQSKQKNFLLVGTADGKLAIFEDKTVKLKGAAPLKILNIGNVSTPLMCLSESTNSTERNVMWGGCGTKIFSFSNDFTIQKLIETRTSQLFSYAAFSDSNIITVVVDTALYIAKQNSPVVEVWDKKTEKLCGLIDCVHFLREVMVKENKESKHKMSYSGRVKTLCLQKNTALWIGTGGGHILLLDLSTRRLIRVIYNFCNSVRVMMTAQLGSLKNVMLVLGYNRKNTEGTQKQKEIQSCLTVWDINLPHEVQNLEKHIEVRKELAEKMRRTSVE

Broadly, the IC50 is the midpoint of a concentration-inhibition curve. Higher therefore signals lower potency. Take `C[C@@]1(N2CC[C@@H](c3cc4cc(NC(=O)C5CC56CC6)ncc4cc3Cl)[C@H](F)C2)COC[C@@H]1O` (stereo partly specified): the midpoint of inhibition, the IC50, lay at 0.0813 nM.
